The target of one test is HldE of E. coli (HldE-K) (Escherichia coli, UniProt P76658). Briefly: Inhibition of the enzymatic activity of HldE-K (luminescent assay on kinase activity). The class given is biochemical. The method, then:
Inhibition of the Enzymatic Activity of HldE-K (Luminescent Assay On Kinase Activity):
The assay buffer “AB” contained 50 mM Hepes pH7.5, 1 mM MnCl2, 25 mM KCl, 0.012% Triton-X100 and 1 mM dithiothreitol (DTT) and 0.1 μM Myelin basic protein (MBP). The following components were added in a white polystyrene Costar plate up to a final volume of 30 μL: 10 μL inhibitor dissolved in DMSO/water 50/50, and 20 μL HldE of E. coli in AB. After 30 min of pre-incubation at room temperature, 30 μL of Substrates mix in AB were added in each well to a final volume of 60 μL. This reaction mixture was then composed of 3 nM HldE, 0.2 μM β-heptose-7-phosphate (custom synthesis) and 0.2 μM ATP (Sigma) in assay buffer. After 30 min of incubation at room temperature, 200 μL of the revelation mix were added to a final volume of 260 µL, including the following constituents at the respective final concentrations: 5000 light units/ml luciferase (Sigma), 30 μM D-luciferin (Sigma), 100 μM N-acetylcysteamine (Aldrich). Luminescence intensity was immediately measured on Luminoskan (Thermofischer) and converted into inhibition percentages. For IC50 determinations, the inhibitor was tested at 6 to 10 different concentrations, and the related inhibitions were fitted to a classical Langmuir equilibrium model using XLFIT (IDBS).

The next test has as its target GmhA of E. coli (Escherichia coli, UniProt P63224). Kind of test: Inhibition of the enzymatic activity of GmhA (luminescent assay). The class given is biochemical. As to the method:
Inhibition of the Enzymatic Activity of GmhA (Luminescent Assay):
The assay buffer “AB” contained 50 mM Hepes pH7.5, 1 mM MnCl2, 25 mM KCl, 0.012% Triton-X100 and 1 mM dithiothreitol (DTT) and 0.1 μM Myelin basic protein (MBP). The following components were added in a white polystyrene Costar plate up to a final volume of 30 μL: 10 μL inhibitor dissolved in DMSO/water 50/50, and 20 μL GmhA of E. coli in AB. After 30 min of pre-incubation at room temperature, 30 μL of Substrates mix in AB were added in each well to a final volume of 60 μL. This reaction mixture was then composed of 2 nM GmhA, 3 μM sedoheptulose-7-phosphate (Sigma), 3 μM ATP (Sigma) and 50 nM HldE of E. coli in assay buffer. After 30 min of incubation at room temperature, 100 μL of the revelation mix were added to a final volume of 160 μL, including the following constituents at the respective final concentrations: 10000 light units/ml luciferase (Sigma), 20 μM D-luciferin (Sigma), 100 μM N-acetylcysteamine (Aldrich). Luminescence intensity was immediately measured on Luminoskan (Thermofischer) and converted into inhibition percentages. For IC50 determinations, the inhibitor was tested at 6 to 10 different concentrations, and the related inhibitions were fitted to a classical langmuir equilibrium model using XLFIT (IDBS).

SMILES strings stand for the structures.

Chain of HldE of E. coli (HldE-K) (P76658 whole entry): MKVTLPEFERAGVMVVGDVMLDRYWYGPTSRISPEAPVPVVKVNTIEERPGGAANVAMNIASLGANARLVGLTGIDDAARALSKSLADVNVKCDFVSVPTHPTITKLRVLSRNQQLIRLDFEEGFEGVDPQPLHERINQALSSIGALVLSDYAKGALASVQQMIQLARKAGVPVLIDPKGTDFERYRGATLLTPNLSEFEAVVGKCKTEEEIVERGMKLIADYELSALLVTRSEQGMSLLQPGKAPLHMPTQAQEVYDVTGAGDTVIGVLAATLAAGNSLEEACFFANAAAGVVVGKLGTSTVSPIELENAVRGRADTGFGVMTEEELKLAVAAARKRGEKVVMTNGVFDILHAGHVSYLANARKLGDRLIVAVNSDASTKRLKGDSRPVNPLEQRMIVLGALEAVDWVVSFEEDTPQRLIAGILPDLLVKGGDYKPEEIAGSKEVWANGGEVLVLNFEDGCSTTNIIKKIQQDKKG
Chain of GmhA of E. coli (P63224 whole entry): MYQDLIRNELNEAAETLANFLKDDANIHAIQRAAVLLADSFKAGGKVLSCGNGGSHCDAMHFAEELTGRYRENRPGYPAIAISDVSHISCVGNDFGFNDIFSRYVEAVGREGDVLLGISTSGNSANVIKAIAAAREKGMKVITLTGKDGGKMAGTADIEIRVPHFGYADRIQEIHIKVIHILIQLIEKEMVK

One may read the IC50 as the concentration needed to halve the response being measured. Read a low IC50 as inhibition by little substance. For the compound `O=P(O)(O)OC[C@@H](O)[C@H]1O[C@@H](CO)[C@@H](O)[C@@H](O)[C@@H]1O` [Example 11, 1-β-C-Hydroxymethylene 1-Deoxy-7-O-phosphoryl-D-glycero-D-manno-heptopyranose], the IC50 against HldE of E. coli (HldE-K) and at GmhA of E. coli was less than 100 µM each time.

In the case of `O=P(O)(O)OC[C@@H](O)[C@H]1O[C@H](F)[C@@H](O)[C@@H](O)[C@@H]1O` [Example 6, α-Fluoro 7-O-phosphoryl-D-glycero-α-D-manno-heptopyranoside], the IC50 against HldE of E. coli (HldE-K) and on GmhA of E. coli was less than 100 µM throughout. With `CO[C@@H]1O[C@H]([C@H](O)COP(=O)(O)O)[C@@H](O)[C@H](O)[C@@H]1O` [Example 3, 1-O-Methyl-D-glycero-β-D-manno-heptopyranose 7-phosphate], the IC50 against GmhA of E. coli was less than 100 µM. With `CC1(O)OC(C(O)COP(=O)(O)O)C(O)C(O)C1O` [Example 12, 1-C-Methyl 7-O-phosphoryl-D-glycero-α-D-manno-heptopyranose], the IC50 against HldE of E. coli (HldE-K) and against GmhA of E. coli was less than 100 µM each time. With `O=P(O)(O)OC[C@@H](O)[C@H]1O[C@@](O)(CO)[C@@H](O)[C@@H](O)[C@@H]1O` [Example 13, 1-C-Hydroxymethylene 7-O-phosphoryl-D-glycero-D-manno-heptopyranose], the IC50 against HldE of E. coli (HldE-K) and against GmhA of E. coli was less than 100 µM throughout. In the case of `CCC[C@H]1O[C@H]([C@H](O)COP(=O)(O)O)[C@@H](O)[C@H](O)[C@@H]1O` [Example 8, 1-Deoxy-1-propyl-D-glycero-α-D-manno-heptopyranose 7-phosphate], the IC50 against HldE of E. coli (HldE-K) and against GmhA of E. coli was less than 100 µM throughout. `CO[C@H]1OC([C@H](O)COP(=O)(O)O)[C@@H](O)C(O)C1O` (stereo partly drawn) [Example 1, Methyl 7-O-phosphate-D-glycero-α-D-gluco-heptopyranoside]: the IC50 at HldE of E. coli (HldE-K) and at GmhA of E. coli was less than 100 µM in each case.

(Values after patent US20140024576A1, “HEPTOSE DERIVATIVES FOR USE IN THE TREATMENT OF BACTERIAL INFECTIONS” (priority 2010, published 2014).)
